{
  "source": "patent US20260284153A1",
  "about": "“COMPOSITION COMPRISING GV1001 FOR PREVENTING OR TREATING PERIODONTAL DISEASES AND DISORDERS CAUSED BY PERIODONTAL DISEASES” (GEMVAX & KAEL CO., LTD., priority 2023, published 2026)",
  "key": {"[1]": {"test_system": "Raw264.7", "test": "In vitro osteoclastogenesis of macrophage cell line induced into osteoclasts", "assay_type": "cell-based", "conditions": "Raw264.7 induced into osteoclasts; FIGS. 6A to 6E", "experimental": "(§1) The depth of the periodontal pocket, the expression level of inflammatory cytokines in the gingival tissue (mRNA level, IF staining), the aggregation of Porphyromonas gingivalis, Porphyromonas gingivalis LPS, Kgp and RgpB in the gingival tissue, the amount of alveolar bone loss, and the number of osteoclasts in the alveolar bone were determined. Further, the effect on osteoclastogenesis was confirmed in an in vitro test.\nTo confirm the efficacy of GV1001 on alveolar bone loss, μCT was used to determine alveolar bone loss in a periodontitis-induced animal model (FIGS. 4A to 4C), and the number of osteoclasts in the alveolar bone was determined by TRAP staining (FIGS. 5A and 5B)."}, "[2]": {"test_system": "gingipain (RgpA, RgpB, Kgp)", "test": "In vitro expression of gingipain in Porphyromonas gingivalis", "assay_type": "cell-based", "conditions": "FIG. 23", "experimental": "To understand the fundamental mechanism of Porphyromonas gingivalis colony formation, and the reduction of Porphyromonas gingivalis LPS and gingipain by GV1001 in gingival tissues, arterial walls and brain, the effect of GV1001 on the expression of gingipain, which is an enzyme important for the growth and tissue invasion of Porphyromonas gingivalis, was investigated. […] Very low doses (5-30 μM) of GV1001 reduced the expression of RgpA and RgpB by approximately 5 times and the expression of Kgp by approximately 3 times, compared with the control group (Porphyromonas gingivalis 16S IRNA) (FIG. 23)."}, "[3]": {"test_system": "human umbilical vein endothelial cells (HUVECs)", "test": "EndMT of HUVECs stimulated with TNF-α and Porphyromonas gingivalis LPS", "assay_type": "cell-based", "conditions": "FIGS. 13A, 13B", "experimental": "(§2) The expression levels of inflammatory cytokines in serum and arterial tissue, the aggregation of Porphyromonas gingivalis, Porphyromonas gingivalis LPS, Kgp and RgpB in arterial tissue, changes in cholesterol levels in serum, and lipid deposition (atherosclerosis) in the arterial wall were determined. In vitro, inhibition of EndMT and inhibition of macrophage uptake of dil-ox-LDL were evaluated. Further, the CD47 expression levels were determined in the aortic root in vivo and in vitro.\nIt is known that when endothelial cells (ECs) change their phenotype into mesenchymal cells (MCs) through endothelial-to-mesenchymal transition (EndMT), it induces various vascular diseases (atherosclerosis, pulmonary hypertension, fibrosis, etc.). TNF-α is known as a cytokine involved in this process. In the present invention, it was confirmed that when human umbilical vein endothelial cells (HUVECs) were stimulated with TNF-α and Porphyromonas gingivalis LPS, ECs (marker; CD31) were decreased while MCs (marker; FSP-1) were increased due to EndMT (FIGS. 13A and 13B). • Control group: EndMT of HUVECs was confirmed to progress by TNF-α and Porphyromonas gingivalis LPS. • GV1001 administration group: The EndMT progression of HUVECs was confirmed to be inhibited by GV1001. […]"}, "[4]": {"test_system": "macrophages differentiated from THP-1 (human monocyte cell line) cells", "test": "ox-LDL uptake by macrophages differentiated from THP-1 cells", "assay_type": "cell-based", "conditions": "induced by TNF-α and Porphyromonas gingivalis LPS; THP-1-derived macrophages; FIGS. 14A, 14B", "experimental": "as §2\nIt is known that the formation of foam cells by macrophages in response to LDL and TNF-α is an important process in atherosclerosis. […] As a result, this means that the inhibition of atherogenesis by GV1001 is partly due to its inhibitory effect on foam cell formation."}, "[5]": {"test_system": "Alzheimer's disease induced by periodontitis", "test": "Periodontitis-related Alzheimer's disease efficacy in Pg-treated ApoE-/- mouse model", "assay_type": "in vivo, ApoE−/− mice (C57BL/6 background)", "conditions": "GV1001 2 mg/kg i.p., vs control", "from_the_text": "(§3) An animal model was created using ApoE^−/^− mice (C57BL/6 background, male, 4 weeks old).\n(§4) Animal models were fed with a high-fat diet (HFD), and a 6-0 silk ligature was placed around the maxillary second molar to create a gingival pocket using the ligature placement method for 1 week, followed by treatment with Porphyromonas gingivalis (Pg) or PBS for 5 weeks.\nThe expression levels of inflammatory cytokines, the aggregation of Porphyromonas gingivalis, Porphyromonas gingivalis LPS and Kgp, RgpB, and the accumulation of Aβ42 and p-Tau in brain tissue were confirmed."}, "[6]": {"test_system": "CD47 in human coronary artery smooth muscle cells (HCASMC)", "test": "CD47 expression in HCASMC treated with TNF-α and Porphyromonas gingivalis LPS", "assay_type": "cell-based", "conditions": "TNF-α and Porphyromonas gingivalis LPS treatment; FIGS. 16A to 16F", "experimental": "as §2\nCD47, a representative anti-phagocytic factor, is known to interfere with the removal of cancer cells by macrophages, and overexpression of CD47 is known to cause atherosclerosis. In the present invention, the expression level of CD47 in the aortic root was confirmed in an animal model of periodontitis induction (FIGS. 15A and 15B). […] 2.3 Effect of GV1001 in Alzheimer's Disease Associated with Periodontitis"}, "[7]": {"test_system": "atherosclerosis induced by periodontitis", "test": "Periodontitis-related atherosclerosis efficacy in Pg-treated ApoE-/- mouse model", "assay_type": "in vivo, ApoE−/− mice (C57BL/6 background)", "conditions": "GV1001 2 mg/kg i.p., vs control", "from_the_text": "as §3, §4, §2"}, "[8]": {"test_system": "Porphyromonas gingivalis-induced periodontitis", "test": "Periodontitis efficacy in Pg-treated, ligature-placed, high-fat-diet ApoE-/- mouse model", "assay_type": "in vivo, ApoE−/− mice (C57BL/6 background)", "from_the_text": "as §3, §4, §1"}, "[9]": {"conditions": "5-30 μM GV1001, compared with the control group (Porphyromonas gingivalis 16S IRNA)"}, "[10]": {"conditions": "GV1001 2 mg/kg i.p., vs control, FIGS. 3A, 3B"}},
  "data": [
    {"substance": "GV1001: peptide consisting of 16 amino acids, SEQ ID NO: 1, derived from human telomerase reverse transcriptase (hTERT) (EARPALLTSRLRFIPK; UniProt O14746 611-626, looked up, fragment)", "values": [
      {"measurement": "osteoclastogenesis in vitro", "setting": "[1]", "result": "significantly inhibited"},
      {"measurement": "reduction of expression of Kgp", "setting": "[2]; [9]", "result": "approximately 3 times"},
      {"measurement": "reduction of expression of RgpA", "setting": "[2]; [9]", "result": "approximately 5 times"},
      {"measurement": "reduction of expression of RgpB", "setting": "[2]; [9]", "result": "approximately 5 times"},
      {"measurement": "expression of gingipain in vitro", "setting": "[2]", "result": "markedly inhibited"},
      {"measurement": "EndMT progression of HUVECs (CD31, FSP-1 markers)", "setting": "[3]", "result": "inhibited"},
      {"measurement": "ox-LDL uptake", "setting": "[4]", "result": "significantly inhibited"},
      {"measurement": "inflammatory cytokine (IL-1β, TNF-α, IL-6) mRNA levels in brain tissue", "setting": "[5]; FIG. 17", "result": "significantly reduced"},
      {"measurement": "inflammatory cytokine expression in brain tissue by fluorescent staining", "setting": "[5]; FIGS. 18A to 19B", "result": "decrease in cytokine expression was confirmed"},
      {"measurement": "Porphyromonas gingivalis LPS in the cerebral cortex and hippocampus", "setting": "[5]; FIGS. 20A to 21B", "result": "significantly reduced"},
      {"measurement": "gingipain (Kgp, RgpB) in the cerebral cortex and hippocampus", "setting": "[5]; FIGS. 20A to 21B", "result": "significantly reduced"},
      {"measurement": "number of Porphyromonas gingivalis colonies in the cerebral cortex and hippocampus", "setting": "[5]; FIGS. 20A to 21B", "result": "significantly reduced"},
      {"measurement": "accumulation of Aβ42 in the cerebral cortex and hippocampus", "setting": "[5]; FIGS. 22A, 22B", "result": "significantly reduced"},
      {"measurement": "accumulation of p-Tau in the cerebral cortex and hippocampus", "setting": "[5]; FIGS. 22A, 22B", "result": "significantly reduced"},
      {"measurement": "expression level of CD47 in HCASMC", "setting": "[6]", "result": "significantly reduced"},
      {"measurement": "inflammatory cytokine (IL-1β, TNF-α, IL-6) mRNA levels in arterial tissue", "setting": "[7]; FIG. 8", "result": "significantly reduced"},
      {"measurement": "inflammatory cytokine expression in arterial tissue by fluorescent staining", "setting": "[7]; FIGS. 9A, 9B", "result": "decrease in cytokine expression was confirmed"},
      {"measurement": "Porphyromonas gingivalis LPS in the arterial wall", "setting": "[7]; FIGS. 10A, 10B", "result": "significantly reduced"},
      {"measurement": "gingipain (Kgp, RgpB) in the arterial wall", "setting": "[7]; FIGS. 10A, 10B", "result": "significantly reduced"},
      {"measurement": "number of Porphyromonas gingivalis colonies in the arterial wall", "setting": "[7]; FIGS. 10A, 10B", "result": "significantly reduced"},
      {"measurement": "level of low-density lipoprotein (LDL) in serum", "setting": "[7]; FIGS. 11A, 11B", "result": "significantly reduced"},
      {"measurement": "level of total cholesterol (TC) in serum", "setting": "[7]; FIGS. 11A, 11B", "result": "significantly reduced"},
      {"measurement": "expression level of CD47 in the aortic root", "setting": "[7]; FIGS. 15A, 15B", "result": "significantly reduced"},
      {"measurement": "intravascular lipid deposition, wall of the aorta-iliac bifurcation", "setting": "[7]; Sudan IV and Oil Red O staining, FIGS. 12A, 12B", "result": "significantly suppressed"},
      {"measurement": "inflammatory cytokine (IL-1β, TNF-α, IL-6) mRNA levels in periodontal tissue", "setting": "[8]; GV1001 2 mg/kg i.p. 3 times/week for 10 weeks, vs periodontitis control, FIG. 1", "result": "significantly reduced"},
      {"measurement": "inflammatory cytokines (IL-1β, TNF-α, IL-6, GM-CSF, VEGF, IL-17, KC) in serum", "setting": "[8]; GV1001 2 mg/kg i.p., all cytokines, vs control, FIGS. 7A, 7B", "result": "significantly suppressed"},
      {"measurement": "Porphyromonas gingivalis LPS in gingival tissue", "setting": "[8]; [10]", "result": "significantly reduced"},
      {"measurement": "gingipain (Kgp, RgpB) in gingival tissue", "setting": "[8]; [10]", "result": "significantly reduced"},
      {"measurement": "number of Porphyromonas gingivalis colonies in gingival tissue", "setting": "[8]; [10]", "result": "significantly reduced"},
      {"measurement": "alveolar bone loss (μCT)", "setting": "[8]; GV1001 2 mg/kg i.p., vs control, FIGS. 4A to 4C", "result": "significantly reduced"},
      {"measurement": "osteoclastogenesis in alveolar bone (number of osteoclasts, TRAP staining)", "setting": "[8]; GV1001 2 mg/kg i.p., vs control, FIGS. 5A, 5B", "result": "significantly inhibited"},
      {"measurement": "inflammatory cytokine expression in periodontal tissue by fluorescent staining", "setting": "[8]; GV1001 2 mg/kg i.p., vs periodontitis control, FIGS. 2A, 2B", "result": "decrease in cytokine expression was confirmed"}
    ]}
  ]
}
